Experimental data reported in patent publication US11453660B2, “Androgen receptor and glucocorticoid receptor modulators” (ONCOSTELLAE, S.L., priority 2017, dated 2022).
Positions count from the first letter of the chain named.

Experiments:
Rat Androgen Receptor = target: T1, Rat Androgen Receptor (Rattus norvegicus, UniProt P15207); experiment: Rat Androgen Receptor Binding (polarscreen AR competitor assay, fluorescence polarization); settings: displacement of Fluormone AL Green, 4 hours at RT, read-out: AR rat-fluorimetric
T1 construct: purchased Life Technologies A15880
T1 sequence (P15207 646-902 limits assumed): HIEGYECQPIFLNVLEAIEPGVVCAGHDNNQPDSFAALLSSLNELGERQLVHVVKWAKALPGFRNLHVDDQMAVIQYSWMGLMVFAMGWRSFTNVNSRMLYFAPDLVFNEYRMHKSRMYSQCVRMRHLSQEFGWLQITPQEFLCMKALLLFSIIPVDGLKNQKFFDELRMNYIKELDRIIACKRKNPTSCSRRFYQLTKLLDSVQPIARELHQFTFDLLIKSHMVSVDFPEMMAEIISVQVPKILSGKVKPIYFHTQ
Summary of the method: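 Fluorescence-polarization competition of Fluormone AL Green binding to rat androgen receptor; compounds screened in duplicate at 1 and 10 μM, 4 h at RT, read at λexc 485/λem 535 nm. IC50 from 1:10 dilution series, 10 μM to 0.1 nM, in 1× buffer.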

human androgen receptor = target: T2, human androgen receptor (Homo sapiens, UniProt P10275, T878A); experiment: Human Androgen Receptor Binding (radioligand binding, LnCap prostate cancer cell line); settings: LnCap cells, displacement of [^3H]-methyltrienolone, 2 hours at 37° C.; read-out: AR LNCaP
T2 construct: endogenously expressed human androgen receptor using the LnCap prostate cancer cell line; endogenous in cells; host or cells: LNCaP prostate cancer cell line (whole cells)
T2 sequence (P10275 1-920 T878A): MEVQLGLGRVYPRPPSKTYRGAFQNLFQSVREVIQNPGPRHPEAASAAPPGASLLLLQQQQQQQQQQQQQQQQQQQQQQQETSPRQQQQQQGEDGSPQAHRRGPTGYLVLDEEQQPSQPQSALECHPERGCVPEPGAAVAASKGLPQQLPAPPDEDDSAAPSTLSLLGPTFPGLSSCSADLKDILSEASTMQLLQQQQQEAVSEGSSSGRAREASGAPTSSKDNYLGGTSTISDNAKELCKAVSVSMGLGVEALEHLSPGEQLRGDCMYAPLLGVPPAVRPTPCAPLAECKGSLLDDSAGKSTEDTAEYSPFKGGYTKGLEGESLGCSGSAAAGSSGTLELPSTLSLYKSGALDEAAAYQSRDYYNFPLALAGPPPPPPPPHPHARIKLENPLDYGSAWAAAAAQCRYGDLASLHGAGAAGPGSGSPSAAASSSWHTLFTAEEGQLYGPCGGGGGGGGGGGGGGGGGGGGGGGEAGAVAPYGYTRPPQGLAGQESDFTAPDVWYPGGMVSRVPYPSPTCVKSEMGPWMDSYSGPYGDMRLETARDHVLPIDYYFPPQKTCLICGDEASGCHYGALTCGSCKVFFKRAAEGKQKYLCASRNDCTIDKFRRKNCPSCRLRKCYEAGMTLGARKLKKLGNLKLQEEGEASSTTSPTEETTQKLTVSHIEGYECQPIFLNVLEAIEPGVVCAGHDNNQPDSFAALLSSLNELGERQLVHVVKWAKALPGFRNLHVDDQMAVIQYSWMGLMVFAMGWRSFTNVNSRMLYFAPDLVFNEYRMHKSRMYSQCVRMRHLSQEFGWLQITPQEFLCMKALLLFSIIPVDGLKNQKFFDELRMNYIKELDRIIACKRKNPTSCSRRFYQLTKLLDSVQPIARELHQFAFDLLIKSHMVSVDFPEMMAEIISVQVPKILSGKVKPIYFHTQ
Summary of the method: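 Whole-cell displacement of [3H]-methyltrienolone from endogenous AR (T878A) in LnCap cells, in RPMI with 0.1% BSA and triamcinolone acetonide. Compounds 10 μM to 0.1 nM in 1:10 steps, 2 h at 37 °C; cells washed, SDS-lysed, bound radioactivity by scintillation counting for IC50.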

AR-Receptor = target: T3, AR-Receptor (Homo sapiens, UniProt P10275); experiment: Functional Assay AR-Receptor (MDA-MB-453 cells, luciferase); assay type: cell-based; settings: antagonist effect in the presence of DHT 1 nM, 24 h, luciferase luminescence, read-out: AR antag KB
T3 sequence (P10275 1-920 Q868H): T2 sequence (P10275 1-920 T878A) with Q868H, A878T
Protocol: Functional Assay AR-Receptor
MDA-MB-453 cells were cultured in DMEM (ATCC, ref 30-2002), 10% FBS, 1% penicillin, 1% streptomycin, 75 μg/ml gentamycin.
The day before performing assay, the cells were trypsinized and seeded in a 384-well plate (Greiner, ref 781098) (8000 cells/well) in 50 μl of complete culture medium. Cells were stores at 37° C. in a 5% CO2 atmosphere overnight.
The medium was replaced by 50 μl complete growth medium with 0.1% FBS. Compounds were dispensed with Echo 550 (Labcyte) and incubated for 24 h at 37° C. in a 5% CO2 atmosphere. Antagonist effect was measured in the presence of DHT 1 nM.
After incubation, assay medium removed and 20 μl of 1× Promega lysis buffer were added to each well. The plate was incubated 15 minutes at RT and quick-frozen to −80° C. and the thaw to room temperature. 50 μl of luciferase substrate (E4550, Promega) were added to each well and luminescence (integration time 1000 msec) was read in an EnSpire multilabel reader (Perkin Elmer).

Compound	IC50 (Rat Androgen Receptor)	IC50 (human androgen receptor)	Kb (AR-Receptor)
CC(=O)C1=C(C)NC(C)=C(C(=O)OCc2ccncc2)C1c1csc2ccccc12 (centres unmarked) [Example B12, Pyridin-4-ylmethyl 5-acetyl-4-(benzo[b]thiophen-3-yl)-2,6-dimethyl-1,4-dihydropyridine-3-carboxylate]	≥ 1000 nM	≥ 1000 nM	< 100 nM
CC(=O)C1=C(C)NC(C)=C(C(=O)OCC2CCCCC2)C1c1csc2ccccc12 (centres unmarked) [Example B21, Cyclohexylmethyl 5-acetyl-4-(benzo[b]thiophen-3-yl)-2,6-dimethyl-1,4-dihydropyridine-3-carboxylate]	100 to 1000 nM	≥ 1000 nM	100 to 1000 nM
CC(=O)C1=C(C)NC(C)=C(C(=O)OCCc2ccccc2)C1c1csc2ccccc12 (centres unmarked) [Example C10, Phenethyl 5-acetyl-4-(benzo[b]thiophen-3-yl)-2,6-dimethyl-1,4-dihydropyridine-3-carboxylate]	≥ 1000 nM		100 to 1000 nM
CC(=O)C1=C(C)NC(C)=C(C(=O)Cc2ccccc2)C1c1csc2ccccc12 (centres unmarked) [Example C52, 1-(5-acetyl-4-(benzo[b]thiophen-3-yl)-2,6-dimethyl-1,4-dihydropyridin-3-yl)-2-phenylethan-1-one]	100 to 1000 nM		100 to 1000 nM
CC(=O)C1=C(C)NC(C2CC2)=C(C(=O)OCc2ccncc2)C1c1csc2ccccc12 (centres unmarked) [Example J32, Pyridin-4-ylmethyl 5-acetyl-4-(benzo[b]thiophen-3-yl)-2-cyclopropyl-6-methyl-1,4-dihydropyridine-3-carboxylate]		≥ 1000 nM	100 to 1000 nM
CC(=O)C1=C(C)NC(C)=C(C(=O)OCc2ccncc2)C1c1csc2c(Br)cccc12 (centres unmarked) [Example J33, Pyridin-4-ylmethyl 5-acetyl-4-(7-bromobenzo[b]thiophen-3-yl)-2,6-dimethyl-1,4-dihydropyridine-3-carboxylate]		100 to 1000 nM	100 to 1000 nM
